According to patent US6849653B2, “Substituted pyrazolyl benzenesulfamide compounds for the treatment of inflammation” (Pharmacia Corporation, priority 2001, dated 2005):

target: T1, rhIKK1/IKK2 heterodimer (Homo sapiens, UniProt O14920+O15111); test: IKK Heterodimer Resin Enzyme Assay; format: biochemical; details: Table 1; values given as bins; read-out: HetD (IKK heterodimer assay values expressed as IC50)
T1 construct: made in house; host or cells: insect cells (baculovirus coinfection; SF9)
T1 sequence (O14920 1-756): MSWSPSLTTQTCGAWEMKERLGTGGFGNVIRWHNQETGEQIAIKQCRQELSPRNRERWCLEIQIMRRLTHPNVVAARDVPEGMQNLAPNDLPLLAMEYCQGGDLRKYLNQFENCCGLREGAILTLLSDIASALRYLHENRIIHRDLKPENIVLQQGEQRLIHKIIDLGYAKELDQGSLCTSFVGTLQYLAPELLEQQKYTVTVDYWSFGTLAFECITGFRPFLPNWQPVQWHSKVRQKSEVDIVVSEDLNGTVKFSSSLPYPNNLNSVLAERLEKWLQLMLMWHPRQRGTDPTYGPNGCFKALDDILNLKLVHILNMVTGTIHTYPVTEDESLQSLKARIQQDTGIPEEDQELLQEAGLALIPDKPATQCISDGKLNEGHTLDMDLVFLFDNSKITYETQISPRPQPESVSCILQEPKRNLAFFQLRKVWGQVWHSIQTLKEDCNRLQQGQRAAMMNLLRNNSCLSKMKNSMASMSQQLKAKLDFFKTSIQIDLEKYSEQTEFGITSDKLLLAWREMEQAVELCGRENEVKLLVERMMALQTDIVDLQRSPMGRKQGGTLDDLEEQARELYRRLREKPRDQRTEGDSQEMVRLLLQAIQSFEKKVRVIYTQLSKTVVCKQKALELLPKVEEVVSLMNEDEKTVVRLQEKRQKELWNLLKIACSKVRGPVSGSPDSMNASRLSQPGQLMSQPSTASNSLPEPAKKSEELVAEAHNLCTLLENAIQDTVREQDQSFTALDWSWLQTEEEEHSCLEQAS
T1 sequence (O15111 1-745): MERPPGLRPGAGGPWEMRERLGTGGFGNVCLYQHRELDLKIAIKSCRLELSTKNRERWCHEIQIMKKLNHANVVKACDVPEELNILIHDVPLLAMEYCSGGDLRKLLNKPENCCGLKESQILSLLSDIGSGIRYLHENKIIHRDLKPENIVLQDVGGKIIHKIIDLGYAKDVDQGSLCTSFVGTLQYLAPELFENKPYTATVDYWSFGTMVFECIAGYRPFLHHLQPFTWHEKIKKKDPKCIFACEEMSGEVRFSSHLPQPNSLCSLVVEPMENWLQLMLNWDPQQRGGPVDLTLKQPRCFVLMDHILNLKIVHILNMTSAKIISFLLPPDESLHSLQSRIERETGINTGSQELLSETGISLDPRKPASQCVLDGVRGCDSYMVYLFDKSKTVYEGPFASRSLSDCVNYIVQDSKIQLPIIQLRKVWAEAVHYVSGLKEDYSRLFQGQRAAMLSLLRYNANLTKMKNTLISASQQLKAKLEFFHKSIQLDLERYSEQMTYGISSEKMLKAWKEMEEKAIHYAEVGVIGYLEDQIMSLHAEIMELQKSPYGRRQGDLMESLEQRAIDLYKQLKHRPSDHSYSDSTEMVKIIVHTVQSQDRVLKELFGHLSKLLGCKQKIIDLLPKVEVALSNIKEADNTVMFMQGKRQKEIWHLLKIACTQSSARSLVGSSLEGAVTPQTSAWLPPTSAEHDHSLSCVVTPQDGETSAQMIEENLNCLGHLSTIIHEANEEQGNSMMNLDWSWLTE
Excerpt: cDNAs of human IKK1 and IKK2 were amplified by reverse transcriptase-polymerase chain reaction from human placental RNA (Clonetech). hIKK1 was subcloned into pFastBac HTa (Life Technologies) and expressed as N-terminal His6-tagged fusion protein. The hIKK2 cDNA was amplified using a reverse oligonucleotide primer which incorporated the peptide sequence for a FLAG-epitope tag at the C-terminus of the IKK2 coding region ([…]). The hIKK2:FLAG cDNA was subcloned into the baculovirus vector pFastBac. The rhIKK2 ([…]) mutant was constructed in the same vector used for wild type rhIKK2 using a QuikChange™ mutagenesis kit (Stratagene). Viral stocks of each construct were used to infect insect cells grown in 40L suspension culture. […] Cell lysates were stored at −80° C. until purification of the recombinant proteins was undertaken as described below.
Isolation of rhIKK1/IKK2 Heterodimer
The heterodimer enzyme was produced by coinfection in a baculovirus system (FLAG IKK2/IKK1 His; MOI=0.1 and I=72 hrs). Infected cells were centrifuged and the cell pellet (10.0 g) was suspended in 50 ml of buffer A. The protein suspension was microfluidized and centrifuged at 100,000×g for 45 min. Imidazole was added to the supernatant to a final concentration of 10 mM. The protein was allowed to bind 25 ml of Ni-NTA resin by mixing for 2 hrs. The protein-resin slurry was poured into a 25 ml column and washed with 250 ml of buffer A containing 10 mM imidazole followed by 125 ml of buffer A containing 50 mM imidazole. Buffer A, containing 300 mM imidazole, was then used to elute the protein. A 75 ml pool was collected and NP-40 was added to a final concentration of 0.1%. […] The protein-resin slurry was then centrifuged for 5 min at 2,000 rpm. The supernatant was collected and the resin re-suspended in 100 ml of buffer C containing 0.1% NP-40. The resin was washed with 375 ml of buffer C containing 0.1% NP-40. The protein-resin was poured into a 25 ml column and the enzyme eluted using buffer B containing FLAG peptide. Enzyme fractions (100 ml) were collected and concentrated to 20 ml using an Amicon membrane with molecular weight cut-off of 30 kDa. Bovine serum albumin was added to the concentrated enzyme to final concentration of 0.1%. The enzyme was then aliquoted and stored at −80° C.
IKK Heterodimer Resin Enzyme Assay
Resin was allowed to settle for one hour and 50 ul of supernatant was removed to a Micolite-2 flat bottom plate (Dynex). 150 μl of scintillation fluid (Microscint 40) (Packard) was added to each well. Incorporation of [γ-^33P] ATP was measured using a Top-Count NXT (Packard).

Row | IC50 [nM] | Compound
1 | ≤ 1000 | N#Cc1cccc(C(=O)Nc2ccc3ccc4c(C(N)=O)nn(-c5ccc(S(N)(=O)=O)cc5)c4c3c2)c1 [Example 17, 1-[4-(aminosulfonyl)phenyl]-8-[(3-cyanobenzoyl)amino]-1H-benzo[g]indazole-3-carboxamide]
2 | 1000 to 10000 | NC(=O)c1nn(-c2ccc(S(N)(=O)=O)cc2)c2c1ccc1ccc(NS(=O)(=O)c3cc(C(F)(F)F)cc(C(F)(F)F)c3)cc12 [Example 24, 1-[4-(aminosulfonyl)phenyl]-8-({[3,5-bis(trifluoromethyl)phenyl]sulfonyl}amino)-1H-benzo[g]indazole-3-carboxamide]
3 | 1000 to 10000 | NC(=O)c1nn(-c2ccc(S(N)(=O)=O)cc2)c2c1ccc1ccc(NS(=O)(=O)c3ccccc3Cl)cc12 [Example 33, 1-[4-(aminosulfonyl)phenyl]-8-{[(2-chlorophenyl)sufonyl]amino}-1H-benzo[g]indazole-3-carboxamide]
4 | 10000 to 100000 | Cc1cccc(S(=O)(=O)Nc2ccc3ccc4c(C(N)=O)nn(-c5ccc(S(N)(=O)=O)cc5)c4c3c2)c1 [Example 18, 1-[4-(aminosulfonyl)phenyl]-8-{[(3-methylphenyl)sulfonyl]amino}-1H-benzo[g]indazole-3-carboxamide]
5 | 1000 to 10000 | NC(=O)c1nn(-c2ccc(S(N)(=O)=O)cc2)c2c1ccc1ccc(NS(=O)(=O)c3cccc(Cl)c3)cc12 [Example 16, 1-[4-(aminosulfonyl)phenyl]-8-{[(3-chlorophenyl)sulfonyl]amino}-1H-benzo[g]indazole-3-carboxamide]
6 | ≤ 1000 | NC(=O)c1nn(-c2ccc(S(N)(=O)=O)cc2)c2c1ccc1ccc(NC(=O)c3cccc(Cl)c3)cc12 [Example 9, 1-[4-(aminosulfonyl)phenyl]-8-[(3-chlorobenzoyl)amino]-1H-benzo[g]indazole-3-carboxamide]
7 | ≤ 1000 | CS(=O)(=O)Nc1ccc2ccc3c(C(N)=O)nn(-c4ccc(S(N)(=O)=O)cc4)c3c2c1 [Example 21, 1-[4-(aminosulfonyl)phenyl]-8-[(methylsulfonyl)amino]-1H-benzo[g]indazole-3-carboxamide]

target: T2, IKK2 (IKKβ), rhIKK2 homodimer (Homo sapiens, UniProt O14920); test: IKKβ (IKK2) Resin Enzyme Assay; format: biochemical; details: Table 2; values given as bins; read-out: IKK2 Resin IC 50
T2 construct: made in house; host or cells: insect cells (baculovirus; SF9)
T2 sequence (O14920 1-756): T1 sequence (O14920 1-756)
Excerpt: cDNAs of human IKK1 and IKK2 were amplified by reverse transcriptase-polymerase chain reaction from human placental RNA (Clonetech). hIKK1 was subcloned into pFastBac HTa (Life Technologies) and expressed as N-terminal His6-tagged fusion protein. The hIKK2 cDNA was amplified using a reverse oligonucleotide primer which incorporated the peptide sequence for a FLAG-epitope tag at the C-terminus of the IKK2 coding region (DYKDDDDKD). The hIKK2:FLAG cDNA was subcloned into the baculovirus vector pFastBac. The rhIKK2 ([…]) mutant was constructed in the same vector used for wild type rhIKK2 using a QuikChange™ mutagenesis kit (Stratagene). Viral stocks of each construct were used to infect insect cells grown in 40L suspension culture. […] Cell lysates were stored at −80° C. until purification of the recombinant proteins was undertaken as described below.
Isolation of rhIKK2 Homodimer
A 10 liter culture of baculovirus-expressing IKK2 tagged with FLAG peptide was centrifuged and the cell pellet (MOI=0.1 and I=72 hrs) was re-suspended in buffer A. These cells were microfluidized, and centrifuged at 100,000×g for 45 min. Supernatant was passed over a G-25 column equilibrated with Buffer A. Protein peak was collected and incubated with anti-FLAG affinity resin on a rotator overnight in buffer B. The resin was washed in batch with 10-15 bed volumes of buffer C. Washed resin was poured into a column and rhIKK2 homodimer was eluted using 5 bed volumes of buffer B containing FLAG peptide. 5 mM DTT, 0.1% NP-40 and BSA (concentrated to 0.1% in final amount) was added to the eluted enzyme before concentrating in using an Amicon membrane with a molecular weight cut-off of 30 kDa. Enzyme was aliquoted and stored at −80° C.
IKKβ kinase activity was measured using a biotinylated IκBα peptide (Gly-Leu-Lys-Lys-Glu-Arg-Leu-Leu-Asp-Asp-Arg-His-Asp-Ser32-Gly-Leu-Asp-Ser36-Met-Lys-Asp-Glu-Glu) (American Peptide Co.). […] contained 5 μM biotinylated IκBα peptide, 0.1 μCi/reaction [γ-^33P] ATP (Amersham) (about 1×10^5 cpm), 1 μM ATP (Sigma), 1 mM DTT (Sigma), 2 mM MgCl2 (Sigma), 2 mM MnCl2 (Sigma), 10 mM NaF (Sigma), 25 mM Hepes (Sigma) buffer, pH 7.6 and 20 μl enzyme solution and […] inhibitor in a final volume of 50 μl. After incubation at 25° C. for 30 min, 150 μl resin (Dowex anion-exchange resin AG1X8 200-400 mesh) in 900 mM formate, pH 3.0 was added to each well to stop the reaction. Resin was allowed to settle for one hour and 50 ul of supernatant was removed to a Micolite-2 flat bottom plate (Dynex). 150 μl of scintillation fluid (Microscint 40) (Packard) was added to each well. Incorporation of [γ-^33P] ATP was measured using a Top-Count NXT (Packard).

Row | IC50 [nM] | Compound
8 | ≤ 1000 | Cc1ccccc1C(=O)Nc1ccc2ccc3c(C(N)=O)nn(-c4ccc(S(C)(=O)=O)cc4)c3c2c1 [Example 38, 8-[(2-methylbenzoyl)amino]-1-[4-(methylsulfonyl)phenyl]-1H-benzo[g]indazole-3-carboxamide]

same assay, conditions: Table 3; read-out: IKK2 Resin IC 50

Row | IC50 [nM] | Compound
9 | ≤ 1000 | NC(=O)c1nn(-c2ccc(F)cc2)c2c1ccc1ccc(NC(=O)c3cccnc3Cl)cc12 [Example 51, 8-{[(2-chloropyridin-3-yl)carbonyl]amino}-1-(4-fluorophenyl)-1H-benzo[g]indazole-3-carboxamide]
10 | ≤ 1000 | NC(=O)c1nn(-c2ccc(F)cc2F)c2c1ccc1ccc(NC(=O)c3cccnc3Cl)cc12 [Example 52, 8-{[(2-chloropyridin-3-yl)carbonyl]amino}-1-(2,4-difluorophenyl)-1H-benzo[g]indazole-3-carboxamide]
11 | 10000 to 100000 | NC(=O)c1nn(-c2ccc(F)cc2)c2c1ccc1ccc(N)cc12 [Example 46, 8-amino-1-(4-fluorophenyl)-1H-benzo[g]indazole-3-carboxamide]

same assay, conditions: Table 4; values given as bins; read-out: IKK2 Resin IC 50

Row | IC50 [nM] | Compound
12 | ≤ 1000 | NC(=O)c1nn(-c2ccc3c(c2)OCO3)c2c1cc(Br)c1ccc(NC(=O)c3cccnc3Cl)cc12 [Example 57, 1-(1,3-benzodioxol-5-yl)-5-bromo-8-{[(2-chloropyridin-3-yl)carbonyl]amino}-1H-benzo[g]indazole-3-carboxamide]
13 | ≤ 1000 | NC(=O)c1nn(-c2ccc3c(c2)OCO3)c2c1ccc1ccc(NC(=O)c3ccccc3Cl)cc12 [Example 54, 1-(1,3-benzodioxol-5-yl)-8-[(2-chlorobenzoyl)amino]-1H-benzo[g]indazole-3-carboxamide]
